Experimental data as given in patent publication US20230287416A1, “COMBINATORY TREATMENT OF SMA WITH SARNA AND MRNA MODULATORS” (RACTIGEN THERAPEUTICS, priority 2020, published 2023).

Assays:
Type in all cases: cell-based, human
SMN protein [1] = assay: Western blotting of SMN protein in GM03813 cells; conditions: GM03813, 72 h
Protocol: (§1) To further verify the effect of ASO-10-27 and DS06-0004 alone or in combination on SMN2 gene expression, western blotting assays were performed in GM03813 cells transfected individually or in combination with ASO-10-27 and DS06-0004. […] DS06-0004 at 1 nM, 5 nM and 25 nM increased SMN2FL by 1.5-, 1.5- and 1.6-fold, respectively (FIGS. 7B and 7C).
(§2) SMA patient derived fibroblasts were obtained from Coriell Institute (Camden, N.J., USA), including GM00232 (SMA type I with 2 copies of SMN2 gene) and GM03813 (SMA type II with 3 copies of SMN2 gene). These cells were cultured at 5% C02 and 37° C. in modified MEM medium (Gibco, Thermo Fisher Scientific, Carlsbad, Calif.) supplemented with 15% bovine calf serum (Sigma-Aldrich), 1% NEAA (Gibco) and 1% penicillin/streptomycin (Gibco). To transfect oligonucleotides including saRNAs, siRNA and ASO, cells were seeded into 6-well plates at a density of 1×10^5 cells/well and were transfected with oligonucleotides at different concentrations using RNAiMax (Invitrogen, Carlsbad, Calif.) according to the reverse transfection protocol provided by the manufacturer for 72 hours (unless otherwise specified). For Risdiplam treatment of cells, Risdiplam (HY-109101, MedChem Express Company, Monmouth Junction, N.J., USA) dissolved in DMSO was added directly to cells at desired concentration for 72 hours unless specified otherwise.
(§3) Proteins were harvested from transfected cells using 1×RIPA Buffer including protease inhibitors and detected the protein concentration by BCA protein assay kits (Beyotime, P0010, China). To isolated proteins from animal tissues, tissues were harvested and lysed using 1×RIPA Buffer. Protein concentrations were measured by using BCA protein assay kits. Protein electrophoresis was performed (10 ug protein/well) with the use of a sodium dodecyl sulfate polyacrylamide gel electrophoresis (PAGE) gel, which was then transferred to a polyvinylidene difluoride (0.45 μm PVDF) membrane. The membranes were blotted with primary anti-SMN (CST, 19276, USA) or anti-α/β-Tubulin (CST, 2148s, USA) antibodies at 4° C. overnight. After three washes with TBST buffer, the membranes were incubated with anti-IgG, horseradish peroxidase-conjugated secondary antibodies (CST, 7074s and 7076s, USA) for 1 h at room temperature (RT). The membranes were then washed with TBST buffer three times for 10 min each and analyzed by Image Lab (BIO-RAD, Chemistry Doctm MP Imaging System). Band densities of SMN protein and α/β-Tubulin were quantified using ImageJ software.

SMN2 mRNA = assay: RT-qPCR of SMN2FL and SMN2 Δ7 mRNA in GM03813 cells; conditions: for maximum increase of SMN2FL (ceiling effect): GM03813, 72 h (Example 1)
Description: “GM03813 cells” refers to fibroblast cells provided by Coriell Institute for Medical Research. This cell line is described as SPINAL MUSCULAR ATROPHY, TYPE II; SMA2 SURVIVAL OF MOTOR NEURON 1, TELOMERIC; SMN1. The relevant gene is SMN1; the chromosomal location is 5q12.2-q13.3, the allelic variant is described as 1 exons 7 and 8 deleted, SPINAL MUSCULAR ATROPHY, TYPE I; and the identified mutation: is EX7-8DEL.
Seventy-two hours later, total cellular RNA was isolated from the treated cells and reverse transcribed into cDNA. SMN2 mRNA expression was assessed with RT-qPCR using primer pairs specific for SMN2FL or SMN2 Δ7. SMN2 mRNA expression was also assessed by semi-quantitative RT-PCR using a primer pair that amplifies both SMN2FL and SMN2 Δ7 followed by DdeI digestion (PCR/digestion). […] After digestion, both bands were reduced by 115 bp, resulting in two products: 392 bp (SMN2FL) and 338 bp (SMN2 Δ7) as shown on the gel of FIG. 3D. FIG. 3A-3D show dose-dependent changes in SMN2FL and SMNΔ7 mRNA as assessed by RT-qPCR and PCR/digestion respectively. FIG. 3E-3G are graphic plots of data from quantitating the intensity of bands in FIG. 3D.
as §2
For RNA isolation from cultured cells, total cellular RNA was isolated from treated cells using an RNeasy Plus Mini kit (Qiagen, Hilden, Germany) according to its manual. To isolated RNA from animal tissues, tissues were harvested and stored at RNA later (AM7021, Thermo Fisher). Total RNA was then isolated using MagPure Total RNA Micro LQ kit (Magen, R6621, China) by auto-pure96 machine (ALLSHENG, China). The resultant RNA (1 μg) was reverse transcribed into cDNA by using a PrimeScript RT kit containing gDNA Eraser (Takara, Shlga, Japan). The resultant cDNA was amplified in an ABI 7500 Fast Real-time PCR System (Applied Biosystems; Foster City, Calif.) using SYBR Premix Ex Taq 11 (Takara, Shlga, Japan) reagents and primers which specifically amplified full-length (SMN2FL) or A7 SMN2 mRNA (SMN2 Δ7) (FIG. 1). The reaction conditions were: 95° C. for 3 seconds (1 cycle) and 60° C. for 30 seconds (40 cycles). Amplification of TBP gene served as an internal control.

SMN protein [2] = assay: Western blotting of SMN protein in GM00232 cells; conditions: GM00232, 72 h
Protocol: as §1, with “GM00232” for “GM03813”, “1.2, 1.3” for “1.5-, 1.5-”, “1.7 fold,” for “1.6-fold,”, “5B” for “7B”, “5C).” for “7C).”
as §2, §3

[3] = GM03813, 72 h, 100 nM (Example 1)
[4] = GM03813, 72 h, 1 nM (Example 4, FIG. 6A)
[5] = GM03813, 72 h, 1 nM (Example 8)
[6] = GM03813, 72 h, 1 nM to 50 nM (Example 1, FIG. 3B)
[7] = GM03813, 72 h, 5 nM (Example 4)
[8] = GM03813, 72 h, 5 nM (Example 8)
[9] = GM03813, 72 h, 25 nM (Example 4)
[10] = GM03813, 72 h, 25 nM (Example 8)
[11] = GM03813, 72 h, alone or in combination at 10 nM, RT-qPCR (Example 10, FIG. 12A)

## Cc1cn2nc(-c3cc(=O)n4cc(N5CCNC6(CC6)C5)ccc4n3)cc(C)c2n1 [Risdiplam]
SMN protein [1]; 50 nM (Example 9, FIG. 11)
  SMN protein fold change: 1.1 fold
SMN protein [1]; 250 nM (Example 9)
  SMN protein fold change: 1.7 fold
SMN2 mRNA
  maximum increase of SMN2FL (ceiling effect): ~2 fold
SMN2 mRNA; GM03813, 72 h, 50 nM (Example 8, FIG. 10A-10C)
  SMN2FL mRNA fold change: 1.0 fold
SMN2 mRNA; GM03813, 72 h, 50 nM, 250 nM and 1250 nM (Example 8)
  SMN2 Δ7 mRNA change: decrease
SMN2 mRNA; [3]
  decrease of SMN2 Δ7 mRNA: 36%
SMN2 mRNA; GM03813, 72 h, 100 nM (Example 1, FIG. 3C)
  SMN2FL mRNA fold change: 1.2 fold
SMN2 mRNA; GM03813, 72 h, 250 nM (Example 8)
  SMN2FL mRNA fold change: 1.4 fold
SMN2 mRNA; GM03813, 72 h, 1000 nM (Example 1)
  decrease of SMN2 Δ7 mRNA: 98%
SMN2 mRNA; GM03813, 72 h, 1000 nM (Example 1, FIG. 3C)
  SMN2FL mRNA fold change: 1.8 fold
SMN2 mRNA; GM03813, 72 h, 1250 nM (Example 8)
  SMN2FL mRNA fold change: 2.1 fold
SMN protein [2]; 50 nM (Example 7, FIG. 9)
  SMN protein fold change: 1.7 fold
SMN protein [2]; 250 nM (Example 7)
  SMN protein fold change: 1.9 fold
SMN protein [2]; 1250 nM (Example 7)
  SMN protein fold change: 2.6 fold

## DS06-0004: saRNA targeting SMN2 promoter at -281; SEQ ID NO: 476/477 (Table 8: SEQ ID NO: 131/288) (chain 1 AGACGAGGCCUAAGCAACATT; chain 2 UGUUGCUUAGGCCUCGUCUTT; chemistry not given here)
SMN protein [1]; 1 nM (Example 5, FIG. 7)
  SMN protein fold change: 1.5 fold
SMN protein [1]; 5 nM (Example 5)
  SMN protein fold change: 1.5 fold
SMN protein [1]; 25 nM (Example 5)
  SMN protein fold change: 1.6 fold
SMN2 mRNA; GM03813, 72 h, 1 nM (Example 4)
  SMN2 Δ7 mRNA fold change: 2.5 fold
SMN2 mRNA; [4]
  SMN2FL mRNA fold change: 2.1 fold
SMN2 mRNA; [5]
  SMN2FL mRNA fold change: 1.7 fold
  SMN2 Δ7 mRNA fold change: 1.8 fold
SMN2 mRNA; [6]
  highest fold change of SMN2FL mRNA: 2.9 fold
  highest fold change of SMN2 Δ7 mRNA: 2.7 fold
SMN2 mRNA; [7]
  SMN2FL mRNA fold change: 2.6 fold
  SMN2 Δ7 mRNA fold change: 2.5 fold
SMN2 mRNA; [8]
  SMN2FL mRNA fold change: 2.2 fold
  SMN2 Δ7 mRNA fold change: 2.3 fold
SMN2 mRNA; [9]
  SMN2FL mRNA fold change: 2.2 fold
  SMN2 Δ7 mRNA fold change: 2.1 fold
SMN2 mRNA; [10]
  SMN2FL mRNA fold change: 2.3 fold
  SMN2 Δ7 mRNA fold change: 2.3 fold
SMN2 mRNA; [3]
  SMN2 mRNA expression: did not further increase
SMN protein [2]; 1 nM (Example 3, FIG. 5)
  SMN protein fold change: 1.2 fold
SMN protein [2]; 5 nM (Example 3)
  SMN protein fold change: 1.3 fold
SMN protein [2]; 25 nM (Example 3)
  SMN protein fold change: 1.7 fold

## Nusinersen [ASO-10-27]
SMN protein [1]; 1 nM (Example 5, FIG. 7)
  SMN protein fold change: 1.2 fold
SMN protein [1]; 5 nM (Example 5)
  SMN protein fold change: 1.5 fold
SMN protein [1]; 25 nM (Example 5)
  SMN protein fold change: 1.9 fold
SMN protein [1]; alone or in combination at 10 nM (Example 10, FIG. 12D-12E)
  SMN protein fold change: 2.3 fold
SMN2 mRNA
  maximum increase of SMN2FL (ceiling effect): ~2 fold
SMN2 mRNA; GM03813, 72 h, 1 nM (Example 1, FIG. 3A)
  SMN2FL mRNA fold change: 1.5 fold
SMN2 mRNA; [4]
  SMN2FL mRNA fold change: 1.2 fold
SMN2 mRNA; GM03813, 72 h, 1 nM, 5 nM and 25 nM (Example 4)
  SMN2 Δ7 mRNA change: decrease
SMN2 mRNA; GM03813, 72 h, 5 nM (Example 1)
  SMN2 Δ7 mRNA change: decrease
SMN2 mRNA; [7]
  SMN2FL mRNA fold change: 2.1 fold
SMN2 mRNA; GM03813, 72 h, 5 nM, peak increase (Example 1, FIG. 3A)
  SMN2FL mRNA fold change: 2.0 fold
SMN2 mRNA; [9]
  SMN2FL mRNA fold change: 2.1 fold
SMN2 mRNA; [11]
  SMN2FL mRNA fold change: 1.4 fold
  SMN2 Δ7 mRNA fold change: 0.3 fold
SMN protein [2]; 1 nM (Example 3, FIG. 5)
  SMN protein fold change: 1.4 fold
SMN protein [2]; 5 nM (Example 3)
  SMN protein fold change: 2.3 fold
SMN protein [2]; 25 nM (Example 3)
  SMN protein fold change: 2.9 fold
